Data on 1 compound can be found in ChEMBL document CHEMBL4725449, “Brain Penetrable Inhibitors of Ceramide Galactosyltransferase for the Treatment of Lysosomal Storage Disorders” (ACS Med Chem Lett, 2020).

pIC50: −log10 of the molar value.

The target in series [1] is T1, 2-hydroxyacylsphingosine 1-beta-galactosyltransferase (Mus musculus, UniProt Q64676).
T1 sequence (Q64676 whole entry): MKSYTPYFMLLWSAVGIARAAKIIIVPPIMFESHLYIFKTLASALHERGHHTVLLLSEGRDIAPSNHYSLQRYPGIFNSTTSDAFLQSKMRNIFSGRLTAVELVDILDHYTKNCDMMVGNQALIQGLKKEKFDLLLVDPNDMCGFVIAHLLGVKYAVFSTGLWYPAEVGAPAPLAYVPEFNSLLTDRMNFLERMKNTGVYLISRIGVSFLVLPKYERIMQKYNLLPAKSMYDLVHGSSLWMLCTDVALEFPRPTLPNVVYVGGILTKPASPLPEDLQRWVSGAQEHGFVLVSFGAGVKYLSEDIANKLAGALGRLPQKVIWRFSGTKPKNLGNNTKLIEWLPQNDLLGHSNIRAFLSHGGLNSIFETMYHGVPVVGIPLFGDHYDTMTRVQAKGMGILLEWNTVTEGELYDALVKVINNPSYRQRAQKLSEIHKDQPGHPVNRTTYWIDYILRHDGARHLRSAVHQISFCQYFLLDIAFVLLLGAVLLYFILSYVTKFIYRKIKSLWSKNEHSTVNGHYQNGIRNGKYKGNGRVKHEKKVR
Put plainly: Inhibition of mouse UGT8 assessed as redcution in SFT accumulation.

Series [2] has as its target T2, UDP-glucuronosyltransferase 2B17 (Homo sapiens, UniProt O75795).
T2 sequence (O75795 whole entry): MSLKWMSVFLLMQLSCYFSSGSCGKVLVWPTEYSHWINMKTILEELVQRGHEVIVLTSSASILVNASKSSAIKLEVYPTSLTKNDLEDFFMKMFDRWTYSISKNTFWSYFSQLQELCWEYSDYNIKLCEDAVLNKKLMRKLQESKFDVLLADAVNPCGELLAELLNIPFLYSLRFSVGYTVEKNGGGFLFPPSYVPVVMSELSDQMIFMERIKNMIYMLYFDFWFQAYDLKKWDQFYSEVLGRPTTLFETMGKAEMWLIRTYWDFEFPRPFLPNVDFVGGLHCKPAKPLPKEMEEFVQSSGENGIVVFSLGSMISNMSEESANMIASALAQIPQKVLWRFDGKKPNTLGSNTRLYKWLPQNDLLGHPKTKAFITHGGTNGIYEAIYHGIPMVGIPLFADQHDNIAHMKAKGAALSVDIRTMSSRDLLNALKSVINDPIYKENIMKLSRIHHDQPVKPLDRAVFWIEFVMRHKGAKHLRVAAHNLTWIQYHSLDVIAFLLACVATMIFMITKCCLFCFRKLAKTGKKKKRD
Put plainly: Inhibition of UGT2B17 (unknown origin). Format: ADME.

Series [3] can be described thus: Volume of distribution at steady state in Beagle dog at 1 mg/kg, iv. Type of series: ADME, organism-based, Canis lupus familiaris. Conditions: in vivo, read-out: Vdss.
Series [4] in a line: Cmax in C57BL/6 mouse at 3 mg/kg, po. Type of series: ADME, organism-based. Also on record: route oral, dose 3 mg/kg. Conditions: in vivo.
Series [5] in a line: In vivo inhibition of GalCer de novo synthesis in PN14 to PN21 days C57BL/6 mouse brain assessed as reduction in [13C] galactose incorporation into GalCer at 30 mg/kg, po bid for 2 days and single dose at day 3 treated 1 hr prior to intraperitoneal injection of [13C] galactose measured after 5 hrs of last dose relative to control. Format: functional. Conditions: C57BL/6, 72 h, time 3 day.

Series [6] deals with Mus musculus. The series is described as follows: (§1) In vivo inhibition of SFT de novo synthesis in po dosed adult C57BL/6 mouse kidney assessed as reduction in [13C] galactose incorporation into SFT treated with compound for 1 hr prior to intraperitoneal injection of [13C] galactose measured after 5 hrs of compound administration. Format: functional.
A short description of series [7]: as §1. Format: functional.
Series [8] in a line: In vivo inhibition of GalCer de novo synthesis in adult C57BL/6 mouse kidney assessed as reduction in [13C] galactose incorporation into GalCer at 0.3 mg/kg, po via gavage treated with compound for 1 hr prior to intraperitoneal injection of [13C] galactose measured after 5 hrs of compound administration relative to control. Type of series: functional.
A short description of series [9]: In vivo inhibition of GalCer de novo synthesis in adult C57BL/6 mouse kidney assessed as reduction in [13C] galactose incorporation into GalCer at 30 mg/kg, po via gavage treated with compound for 1 hr prior to intraperitoneal injection of [13C] galactose measured after 5 hrs of compound administration relative to control. Type of series: functional.
Series [10] can be described thus: In vivo inhibition of SFT de novo synthesis in adult C57BL/6 mouse kidney assessed as reduction in [13C] galactose incorporation into SFT at 10 mg/kg, po via gavage treated with compound for 1 hr prior to intraperitoneal injection of [13C] galactose measured after 5 hrs of compound administration relative to control. Format: functional.
Series [11] in a line: Intrinsic clearance in human liver microsomes. Conditions: read-out: CLH. Format: ADME, Microsome. For orientation: Liver microsomes are vesicles of endoplasmic reticulum, rich in cytochrome P450 enzymes.
Series [12] in a line: In vivo inhibition of GalCer de novo synthesis in adult C57BL/6 mouse kidney assessed as reduction in [13C] galactose incorporation into GalCer at 10 mg/kg, po via gavage treated with compound for 1 hr prior to intraperitoneal injection of [13C] galactose measured after 5 hrs of compound administration relative to control. Format: functional.
The nature of series [13]: Half life in Beagle dog at 1 mg/kg, iv. Format: ADME, organism-based, Canis lupus familiaris. Conditions: in vivo.
Series [14] is described as follows: Volume of distribution at steady state in Sprague-Dawley rat at 1 mg/kg, iv. Type of series: ADME, organism-based. Conditions: in vivo, read-out: Vdss.
Series [15] in a line: In vivo inhibition of SFT de novo synthesis in PN14 to PN21 days C57BL/6 mouse brain assessed as reduction in [13C] galactose incorporation into SFT at 30 mg/kg, po bid for 2 days and single dose at day 3 treated 1 hr prior to intraperitoneal injection of [13C] galactose measured after 5 hrs of last dose relative to control. Type of series: functional. Conditions: C57BL/6, 72 h, time 3 day.

The nature of series [16]: AUC (0 to last) in Beagle dog at 3 mg/kg, po. Also on record: time 0 - last, route oral, dose 3 mg/kg. Type of series: ADME, organism-based, Canis lupus familiaris. Conditions: in vivo.
A short description of series [17]: Distribution coefficient, log D of the compound. Format: physicochemical. Conditions: octanol/water.
Series [18] in a line: In vivo inhibition of SFT de novo synthesis in adult C57BL/6 mouse kidney assessed as reduction in [13C] galactose incorporation into SFT at 1 mg/kg, po via gavage treated with compound for 1 hr prior to intraperitoneal injection of [13C] galactose measured after 5 hrs of compound administration relative to control. Type of series: functional.
Series [19] is described as follows: In vivo inhibition of GalCer de novo synthesis in adult C57BL/6 mouse kidney assessed as reduction in [13C] galactose incorporation into GalCer at 3 mg/kg, po via gavage treated with compound for 1 hr prior to intraperitoneal injection of [13C] galactose measured after 5 hrs of compound administration relative to control. Type of series: functional.
Series [20] is described as follows: Tmax in C57BL/6 mouse at 3 mg/kg, po. Format: ADME, organism-based. Conditions: in vivo.
Series [21] can be described thus: Half life in C57BL/6 mouse at 1 mg/kg, iv. Conditions: in vivo. Format: ADME, organism-based.
The nature of series [22]: Oral bioavailability in Beagle dog at 3 mg/kg. Format: ADME, organism-based, Canis lupus familiaris. Conditions: in vivo.
A short description of series [23]: In vivo inhibition of SFT de novo synthesis in PN14 to PN21 days C57BL/6 mouse brain assessed as reduction in [13C] galactose incorporation into SFT at 10 mg/kg, po bid for 2 days and single dose at day 3 treated 1 hr prior to intraperitoneal injection of [13C] galactose measured after 5 hrs of last dose relative to control. Type of series: functional. Conditions: C57BL/6, 72 h, time 3 day.

Regarding `CNC(=O)c1csc2c(C(F)(F)F)cc(N3CCC(OC(=O)N[C@@H](C)COC(F)(F)F)CC3)nc12`, the pIC50 (commonly the negative decadic logarithm of the IC50, by convention in mol/L) in [1] is 9.52; in series [2] it was under 5.00. Moreover, the Vd amounted to 3.32 L/kg in [3] and 1.52 L/kg in [14]. Moreover, in series [4], the peak level (Cmax) was 306 ng/mL. The inhibition in vivo (commonly how much of the control response was suppressed) at 30 mg/kg amounted to 94% in series [5], 90% in series [9] and 98% in series [15]. The inhibition result in series [6] is “Dose-dependent effect”. For the same compound, the ED50 (commonly the dose at which the effect has come halfway, by size or by number of responders) in series [7] was determined as 1 mg/kg. Also, in series [8], the inhibition in vivo at 0.3 mg/kg came to 19%. Moreover, the inhibition in vivo at 10 mg/kg in series [10] worked out at 95%; in series [12] it was 85%; in [23], 97%. Also, in series [11], the microsomal CLint is 73 µL/min/mg. Also, the half-life (in general, how long it takes for the measured level to halve) in [13] was 13.6 h; in [21] it was 1.13 h. For the same compound, in series [16], the AUC(0-t) – broadly, exposure summed from dosing to a finite time, without extrapolation to infinity – is 4190 ng·h/mL. In addition, in series [17], the logD (in general, the decadic logarithm of the distribution of all forms, ionised or not, between an organic phase and buffer at a given pH) amounted to 5.09. The inhibition in vivo at 1 mg/kg in series [18] came to 50%. In addition, the inhibition in vivo at 3 mg/kg in series [19] amounted to 72%. The Tmax (in general, the time at which the peak concentration occurs) in series [20] is 0.5 h. Besides, the bioavailability – broadly, dose-corrected exposure relative to a reference, in per cent – in series [22] is 52%.
